Assay results reported in PubChem BioAssay AID292 (DTP/NCI, 2004).
Several values for one entry are separate records, joined by “and”; a condition that tells them apart may be missing. Equal values may be shown once. Inconclusive results and toxic doses are left out.

System: B6C3F1 mice, ip Sarcoma M5076, median survival T/C
Test: NCI In Vivo Anticancer Drug Screen. Data for tumor model Sarcoma M5076 (intraperitoneal) in B6C3F1 mice
Settings: endpoint: median survival time, higher = longer survival
Outline: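 Survival measured in treated (T) and vehicle control (C) mice with transplantable tumour; result given as T divided by C.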

[1] = dose: 50.0 mg/kg/injection, schedule: Q04DX004 (ip), vehicle: saline with Tween-80
[2] = dose: 100.0 mg/kg/injection, schedule: Q04DX004 (ip), vehicle: saline with Tween-80
[3] = dose: 200.0 mg/kg/injection, schedule: Q04DX004 (ip), vehicle: saline with Tween-80
[4] = dose: 25.0 mg/kg/injection, schedule: Q04DX004 (ip), vehicle: saline with Tween-80

For `CCCCCC[Se][Se]CCCCCC`, the T/C (dose: 3.12 mg/kg/injection, schedule: Q04DX004 (ip), vehicle: Klucel (hydroxypropylcellulose) (HPC)) was 123 % of control, the T/C (dose: 6.25 mg/kg/injection, schedule: Q04DX004 (ip), vehicle: Klucel (hydroxypropylcellulose) (HPC)) was 106 % of control and the T/C (dose: 12.5 mg/kg/injection, schedule: Q04DX004 (ip), vehicle: Klucel (hydroxypropylcellulose) (HPC)) was 114 % of control. For the same compound, the T/C (dose: 25.0 mg/kg/injection, schedule: Q04DX004 (ip), vehicle: Klucel (hydroxypropylcellulose) (HPC)) was 115 % of control.
`CC1=C(N2CCOCC2)C(N2CCOCC2)=C(C)C(=O)C1=O` was tested, and the T/C (dose: 50.0 mg/kg/injection, schedule: Q04DX004 (ip), vehicle: Klucel (hydroxypropylcellulose) (HPC)) was 104 % of control, the T/C (dose: 100.0 mg/kg/injection, schedule: Q04DX004 (ip), vehicle: Klucel (hydroxypropylcellulose) (HPC)) was 100 % of control and the T/C (dose: 200.0 mg/kg/injection, schedule: Q04DX004 (ip), vehicle: Klucel (hydroxypropylcellulose) (HPC)) was 100 % of control. The T/C (dose: 400.0 mg/kg/injection, schedule: Q04DX004 (ip), vehicle: Klucel (hydroxypropylcellulose) (HPC)) was 113 % of control and the T/C (dose: 800.0 mg/kg/injection, schedule: Q04DX004 (ip), vehicle: Klucel (hydroxypropylcellulose) (HPC)) was 95 % of control.
In the case of `C/C(=N\Nc1cc(C)nc2ccc(C)cc12)c1cn(C)n(-c2ccccc2)c1=O`, the T/C (dose: 31.25 mg/kg/injection, schedule: Q04DX004 (ip), vehicle: Klucel (hydroxypropylcellulose) (HPC)) is reported as 86 % of control.
With `COc1cc2c(c(OC)c1OC)-c1ccc(OC)c(=O)cc1[C@@H](NC(C)=O)CC2` the T/C (dose: 0.38 mg/kg/injection, schedule: Q04DX004 (ip), vehicle: saline) was 106 % of control, the T/C (dose: 0.54 mg/kg/injection, schedule: Q04DX004 (ip), vehicle: saline) was 101 % of control and the T/C (dose: 0.75 mg/kg/injection, schedule: Q04DX004 (ip), vehicle: saline) was 112 % of control. For the same compound, the T/C (dose: 0.9 mg/kg/injection, schedule: Q04DX004 (ip), vehicle: saline) was 116 % of control, the T/C (dose: 2.5 mg/kg/injection, schedule: Q04DX004 (ip), vehicle: saline) was 123 % of control and the T/C (dose: 185.0 micrograms/kg/injection, schedule: Q04DX004 (ip), vehicle: saline) was 96 % of control. The T/C (dose: 375.0 micrograms/kg/injection, schedule: Q04DX004 (ip), vehicle: saline) was 95 % of control, the T/C (dose: 750.0 micrograms/kg/injection, schedule: Q04DX004 (ip), vehicle: saline) was 100 % of control and the T/C (dose: 1500.0 micrograms/kg/injection, schedule: Q04DX004 (ip), vehicle: saline) was 100 % of control. For the same compound, the T/C (dose: 3000.0 micrograms/kg/injection, schedule: Q04DX004 (ip), vehicle: saline) was 97 % of control.
In the case of `COc1cc(C(=O)c2cc3c(cc2C)OCO3)cc(OC)c1OC`, the T/C (dose: 3.75 mg/kg/injection, schedule: Q04DX004 (ip), vehicle: Klucel (hydroxypropylcellulose) (HPC)) is reported as 97 % of control, the T/C (dose: 7.5 mg/kg/injection, schedule: Q04DX004 (ip), vehicle: Klucel (hydroxypropylcellulose) (HPC)) is reported as 109 % of control and the T/C (dose: 15.0 mg/kg/injection, schedule: Q04DX004 (ip), vehicle: Klucel (hydroxypropylcellulose) (HPC)) is reported as 104 % of control. For the same compound, the T/C (dose: 30.0 mg/kg/injection, schedule: Q04DX004 (ip), vehicle: Klucel (hydroxypropylcellulose) (HPC)) was 105 % of control, the T/C (dose: 37.5 mg/kg/injection, schedule: Q04DX004 (ip), vehicle: Klucel (hydroxypropylcellulose) (HPC)) was 110 % of control and the T/C (dose: 60.0 mg/kg/injection, schedule: Q04DX004 (ip), vehicle: Klucel (hydroxypropylcellulose) (HPC)) was 100 % of control. For the same compound, the T/C (dose: 75.0 mg/kg/injection, schedule: Q04DX004 (ip), vehicle: Klucel (hydroxypropylcellulose) (HPC)) was 108 % of control and 114 % of control, the T/C (dose: 150.0 mg/kg/injection, schedule: Q04DX004 (ip), vehicle: Klucel (hydroxypropylcellulose) (HPC)) was 113 % of control and 116 % of control and the T/C (dose: 300.0 mg/kg/injection, schedule: Q04DX004 (ip), vehicle: Klucel (hydroxypropylcellulose) (HPC)) was 107 % of control.
`O=C1c2ccccc2C(=O)c2c(NCCNCCO)ccc(NCCNCCO)c21` was tested, and the T/C (dose: 1.0 mg/kg/injection, schedule: Q04DX004 (ip), vehicle: saline) was 112 % of control, the T/C (dose: 2.0 mg/kg/injection, schedule: Q04DX004 (ip), vehicle: saline) was 120 % of control and the T/C (dose: 5.0 mg/kg/injection, schedule: Q04DX005 (ip), vehicle: saline) was 234 % of control. For the same compound, the T/C (dose: 8.0 mg/kg/injection, schedule: Q04DX004 (ip), vehicle: saline) was 158 % of control, the T/C (dose: 10.0 mg/kg/injection, schedule: Q04DX005 (ip), vehicle: saline) was 319 % of control and the T/C (dose: 16.0 mg/kg/injection, schedule: Q04DX004 (ip), vehicle: saline) was 174 % of control. For the same compound, the T/C (dose: 20.0 mg/kg/injection, schedule: Q04DX004 (ip), vehicle: suspension in saline) was 156 % of control and the T/C (dose: 40.0 mg/kg/injection, schedule: Q04DX004 (ip), vehicle: suspension in saline) was 172 % of control.
For `N#CCS(=O)(=O)c1cccc[n+]1[O-]`, the T/C [1] was 99 % of control, the T/C [2] was 99 % of control and the T/C [3] was 93 % of control.
For `Cc1ccc(N=NN(C)C)cc1NC(=O)NCC(=O)OC(C)(C)C`, the T/C (dose: 16.25 mg/kg/injection, schedule: Q04DX004 (ip), vehicle: saline with Tween-80) was 103 % of control, the T/C (dose: 32.5 mg/kg/injection, schedule: Q04DX004 (ip), vehicle: saline with Tween-80) was 98 % of control and the T/C (dose: 65.0 mg/kg/injection, schedule: Q04DX004 (ip), vehicle: saline with Tween-80) was 111 % of control. For the same compound, the T/C (dose: 130.0 mg/kg/injection, schedule: Q04DX004 (ip), vehicle: saline with Tween-80) was 108 % of control and the T/C (dose: 260.0 mg/kg/injection, schedule: Q04DX004 (ip), vehicle: saline with Tween-80) was 118 % of control.
With `COc1cc2c(c3c1/c(=N/N)c1ccccc1n3C)C=CC(C)(C)O2` the T/C [4] was 108 % of control, the T/C [1] was 110 % of control and the T/C [2] was 89 % of control. For the same compound, the T/C [3] was 104 % of control.
For `Cc1noc2nc(-c3ccccc3)cc(N3CCN(C)CC3)c12`, the T/C (dose: 25.0 mg/kg/injection, schedule: Q04DX004 (ip), vehicle: other) was 95 % of control, the T/C (dose: 50.0 mg/kg/injection, schedule: Q04DX004 (ip), vehicle: other) was 105 % of control and the T/C (dose: 100.0 mg/kg/injection, schedule: Q04DX004 (ip), vehicle: other) was 99 % of control. For the same compound, the T/C (dose: 200.0 mg/kg/injection, schedule: Q04DX004 (ip), vehicle: other) was 97 % of control.
`Cc1ccc(C(=O)[O][Hg][CH2]C2COC([CH2][Hg][O]C(=O)c3ccc(C)cc3)CO2)cc1` (stereo unspecified) was tested, and the T/C (dose: 6.25 mg/kg/injection, schedule: Q04DX004 (ip), vehicle: saline with Tween-80) was 99 % of control, the T/C (dose: 12.5 mg/kg/injection, schedule: Q04DX004 (ip), vehicle: saline with Tween-80) was 88 % of control and the T/C [4] was 88 % of control.
In the case of `CC(=O)C1C(=O)C(=O)N(c2cc(C)ccc2O)C1=O` (stereo unspecified), the T/C (dose: 50.0 mg/kg/injection, schedule: Q04DX004 (ip), vehicle: Klucel + Tween-80) is reported as 106 % of control and the T/C (dose: 100.0 mg/kg/injection, schedule: Q04DX004 (ip), vehicle: Klucel + Tween-80) is reported as 100 % of control.
For `CCC(=O)[O][Bi]([c]1ccccc1)[c]1ccccc1`, the T/C (dose: 3.0 mg/kg/injection, schedule: Q04DX004 (ip), vehicle: Klucel (hydroxypropylcellulose) (HPC)) was 101 % of control, the T/C (dose: 6.0 mg/kg/injection, schedule: Q04DX004 (ip), vehicle: Klucel (hydroxypropylcellulose) (HPC)) was 98 % of control and the T/C (dose: 12.0 mg/kg/injection, schedule: Q04DX004 (ip), vehicle: Klucel (hydroxypropylcellulose) (HPC)) was 102 % of control. For the same compound, the T/C (dose: 24.0 mg/kg/injection, schedule: Q04DX004 (ip), vehicle: Klucel (hydroxypropylcellulose) (HPC)) was 89 % of control.
In the case of `O=c1ncccn1[C@@H]1O[C@H](CO)[C@H](O)C1O` (stereo partly specified), the T/C (dose: 25.0 mg/kg/injection, schedule: Q01DX009 (ip), vehicle: saline) is reported as 99 % of control, the T/C (dose: 50.0 mg/kg/injection, schedule: Q01DX009 (ip), vehicle: saline) is reported as 103 % of control and the T/C (dose: 100.0 mg/kg/injection, schedule: Q01DX009 (ip), vehicle: saline) is reported as 104 % of control. For the same compound, the T/C (dose: 125.0 mg/kg/injection, schedule: Q04DX004 (ip), vehicle: saline) was 92 % of control, the T/C (dose: 200.0 mg/kg/injection, schedule: Q01DX009 (ip), vehicle: saline) was 110 % of control and the T/C (dose: 250.0 mg/kg/injection, schedule: Q04DX004 (ip), vehicle: saline) was 94 % of control. For the same compound, the T/C (dose: 400.0 mg/kg/injection, schedule: Q01DX009 (ip), vehicle: saline) was 97 % of control, the T/C (dose: 500.0 mg/kg/injection, schedule: Q04DX004 (ip), vehicle: saline) was 89 % of control and the T/C (dose: 1000.0 mg/kg/injection, schedule: Q04DX004 (ip), vehicle: saline) was 92 % of control.
